What was measured:
Assay in all cases: relative viability (nuclei count vs DMSO), 5 days (fraction); higher = more cells survive
[1] = tested on: NCI-H650
Procedure, shortened: (§1)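 A single step with final 0.05% Triton X-100, 1% formaldehyde and 1 ug/ml Hoechst fixed the cells and stained nuclei 5 days after treatment. Lung cancer cell lines in 1536-well plates had been treated by pin tool the day after seeding with one drug alone or a fixed anchor-drug dose plus five library-drug doses (not always all listed) in √10 steps, and nuclei were counted on 4× images. Relative viability is the ratio of nuclei in treated wells to nuclei in vehicle wells, taken as the median of duplicate plates.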

[2] = tested on: NCI-H23
Procedure, shortened: as §1

[3] = tested on: HOP-62
Procedure, shortened: as §1

[4] = tested on: NCI-H2126
Procedure, shortened: as §1

[5] = tested on: NCI-H441
Procedure, shortened: as §1

[6] = tested on: NCI-H2170
Procedure, shortened: as §1

[7] = tested on: LOU-NH91
Procedure, shortened: as §1

[8] = tested on: NCI-H1437
Procedure, shortened: as §1

[9] = tested on: ChaGo-K-1
Procedure, shortened: as §1

[10] = tested on: NCI-H1793
Procedure, shortened: as §1

[11] = tested on: NCI-H647
Procedure, shortened: as §1

[12] = tested on: PC-14
Procedure, shortened: as §1

[13] = tested on: SW 1573
Procedure, shortened: as §1

[14] = tested on: SW 900
Procedure, shortened: as §1

[15] = tested on: NCI-H2347
Procedure, shortened: as §1

[16] = tested on: NCI-H727
Procedure, shortened: as §1

[17] = tested on: NCI-H2023
Procedure, shortened: as §1

[18] = tested on: LCLC-103H
Procedure, shortened: as §1

[19] = tested on: HCC-44
Procedure, shortened: as §1

[20] = tested on: EPLC-272H
Procedure, shortened: as §1

[21] = tested on: NCI-H2405
Procedure, shortened: as §1

[22] = tested on: NCI-H460
Procedure, shortened: as §1

[23] = tested on: EMC-BAC-2
Procedure, shortened: as §1

[24] = tested on: NCI-H2009
Procedure, shortened: as §1

[25] = tested on: NCI-H520
Procedure, shortened: as §1

For CCCCCCCCCCCC1=C(O)C(=O)C=C(O)C1=O [Embelin] + Nc1ncn([C@H]2C[C@H](O)[C@@H](CO)O2)c(=O)n1 [Decitabine] (partner 2 µM), the relative viability ([1]; first compound 0.08 µM) was 0.322, the relative viability ([1]; first compound 0.8 µM) was 0.371 and the relative viability ([1]; first compound 2.53 µM) was 0.337. It also gave a relative viability ([1]; first compound 8 µM) of 0.297, a relative viability ([2]; first compound 0.08 µM) of 0.258 and a relative viability ([2]; first compound 0.8 µM) of 0.37. The relative viability ([2]; first compound 2.53 µM) was 0.329, the relative viability ([2]; first compound 8 µM) was 0.29 and the relative viability ([3]; first compound 0.08 µM) was 0.193. It also gave a relative viability ([3]; first compound 0.8 µM) of 0.22, a relative viability ([3]; first compound 2.53 µM) of 0.205 and a relative viability ([3]; first compound 8 µM) of 0.19. The relative viability ([4]; first compound 0.08 µM) was 0.514, the relative viability ([4]; first compound 0.8 µM) was 0.519 and the relative viability ([4]; first compound 2.53 µM) was 0.589. The relative viability ([4]; first compound 8 µM) was 0.513, the relative viability ([5]; first compound 0.08 µM) was 0.221 and the relative viability ([5]; first compound 0.8 µM) was 0.268. For the same molecule, the relative viability ([5]; first compound 2.53 µM) was 0.198, the relative viability ([5]; first compound 8 µM) was 0.237 and the relative viability ([6]; first compound 0.08 µM) was 0.514. The relative viability ([6]; first compound 0.8 µM) was 0.446, the relative viability ([6]; first compound 2.53 µM) was 0.506 and the relative viability ([6]; first compound 8 µM) was 0.456. It also gave a relative viability ([7]; first compound 0.08 µM) of 0.825, a relative viability ([7]; first compound 0.8 µM) of 0.893 and a relative viability ([7]; first compound 2.53 µM) of 0.852. It also gave a relative viability ([7]; first compound 8 µM) of 0.801, a relative viability ([8]; first compound 0.08 µM) of 0.541 and a relative viability ([8]; first compound 0.8 µM) of 0.623. For the same molecule, the relative viability ([8]; first compound 2.53 µM) was 0.568, the relative viability ([8]; first compound 8 µM) was 0.41 and the relative viability ([9]; first compound 0.08 µM) was 0.523. The relative viability ([9]; first compound 0.8 µM) was 0.531, the relative viability ([9]; first compound 2.53 µM) was 0.507 and the relative viability ([9]; first compound 8 µM) was 0.484. It also gave a relative viability ([10]; first compound 0.08 µM) of 0.586, a relative viability ([10]; first compound 0.8 µM) of 0.625 and a relative viability ([10]; first compound 2.53 µM) of 0.505. It also gave a relative viability ([10]; first compound 8 µM) of 0.549, a relative viability ([11]; first compound 0.08 µM) of 0.454 and a relative viability ([11]; first compound 0.8 µM) of 0.379. For the same molecule, the relative viability ([11]; first compound 2.53 µM) was 0.488, the relative viability ([11]; first compound 8 µM) was 0.277 and the relative viability ([12]; first compound 0.08 µM) was 0.254. The relative viability ([12]; first compound 0.8 µM) was 0.21, the relative viability ([12]; first compound 2.53 µM) was 0.163 and the relative viability ([12]; first compound 8 µM) was 0.209. For the same molecule, the relative viability ([13]; first compound 0.08 µM) was 0.422, the relative viability ([13]; first compound 0.8 µM) was 0.674 and the relative viability ([13]; first compound 2.53 µM) was 0.654. For the same molecule, the relative viability ([13]; first compound 8 µM) was 0.456, the relative viability ([14]; first compound 0.08 µM) was 0.449 and the relative viability ([14]; first compound 0.8 µM) was 0.402. For the same molecule, the relative viability ([14]; first compound 2.53 µM) was 0.466, the relative viability ([14]; first compound 8 µM) was 0.454 and the relative viability ([15]; first compound 0.08 µM) was 0.618. It also gave a relative viability ([15]; first compound 0.8 µM) of 0.72, a relative viability ([15]; first compound 2.53 µM) of 0.671 and a relative viability ([15]; first compound 8 µM) of 0.592. For the same molecule, the relative viability ([16]; first compound 0.08 µM) was 1.02, the relative viability ([16]; first compound 0.8 µM) was 0.96 and the relative viability ([16]; first compound 2.53 µM) was 1.14. The relative viability ([16]; first compound 8 µM) was 0.916, the relative viability ([17]; first compound 0.08 µM) was 0.249 and the relative viability ([17]; first compound 0.8 µM) was 0.234. It also gave a relative viability ([17]; first compound 2.53 µM) of 0.247, a relative viability ([17]; first compound 8 µM) of 0.155 and a relative viability ([18]; first compound 0.08 µM) of 0.754. For the same molecule, the relative viability ([18]; first compound 0.8 µM) was 0.755, the relative viability ([18]; first compound 2.53 µM) was 0.737 and the relative viability ([18]; first compound 8 µM) was 0.718. It also gave a relative viability ([19]; first compound 0.08 µM) of 0.981, a relative viability ([19]; first compound 0.8 µM) of 0.953 and a relative viability ([19]; first compound 2.53 µM) of 0.986. It also gave a relative viability ([19]; first compound 8 µM) of 0.944, a relative viability ([20]; first compound 0.08 µM) of 0.363 and a relative viability ([20]; first compound 0.8 µM) of 0.401. For the same molecule, the relative viability ([20]; first compound 2.53 µM) was 0.355, the relative viability ([20]; first compound 8 µM) was 0.367 and the relative viability ([21]; first compound 0.08 µM) was 0.764. It also gave a relative viability ([21]; first compound 0.8 µM) of 0.89, a relative viability ([21]; first compound 2.53 µM) of 0.738 and a relative viability ([21]; first compound 8 µM) of 0.703. It also gave a relative viability ([22]; first compound 0.08 µM) of 0.455, a relative viability ([22]; first compound 0.8 µM) of 0.511 and a relative viability ([22]; first compound 2.53 µM) of 0.577. It also gave a relative viability ([22]; first compound 8 µM) of 0.254, a relative viability ([23]; first compound 0.08 µM) of 0.945 and a relative viability ([23]; first compound 0.8 µM) of 1.01. It also gave a relative viability ([23]; first compound 2.53 µM) of 0.958, a relative viability ([23]; first compound 8 µM) of 0.955 and a relative viability ([24]; first compound 0.08 µM) of 0.407. It also gave a relative viability ([24]; first compound 0.8 µM) of 0.412, a relative viability ([24]; first compound 2.53 µM) of 0.369 and a relative viability ([24]; first compound 8 µM) of 0.351. It also gave a relative viability ([25]; first compound 0.08 µM) of 0.478, a relative viability ([25]; first compound 0.8 µM) of 0.558 and a relative viability ([25]; first compound 2.53 µM) of 0.552. The relative viability ([25]; first compound 8 µM) was 0.441.

Reference: the supplement of paper PMC10307832
